Laboratory results as given in ChEMBL document CHEMBL1201862, “PubChem BioAssay data set” (2004).
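Where inhibition never reached the appropriate level, the endpoint shown equals the highest concentration tested. Otherwise, values were interpolated linearly from a five-concentration, 48-hour dose response in 96-well plates. GI50 is the concentration that inhibits growth by half.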 Active and inactive are the calls of the source. Cut-off read from the data, not from the text of the source: active = GI50 up to about 1.1 µM and inactive = higher.

How the values were obtained:
Assay in all cases: NCI anticancer screen, dose series, 48 h
ACHN = system: ACHN
BT-549 = system: BT-549
COLO 205 = system: COLO 205
HCT-15 = system: HCT-15
HL-60 = system: HL-60
HOP-62 = system: HOP-62
HOP-92 = system: HOP-92
Hs-578T = system: Hs-578T
IGROV-1 = system: IGROV-1
LOX IMVI = system: LOX IMVI
MDA-MB-231 = system: MDA-MB-231
MDA-N = system: MDA-N
Malme-3M = system: Malme-3M
NCI-H522 = system: NCI-H522
OVCAR-5 = system: OVCAR-5
SK-MEL-2 = system: SK-MEL-2
SNB-19 = system: SNB-19
T47D = system: T47D
U-251 = system: U-251
CCRF-CEM = system: CCRF-CEM

Compound	GI50 (ACHN)	GI50 (BT-549)	GI50 (COLO 205)	GI50 (HCT-15)	GI50 (HL-60)	GI50 (HOP-62)	GI50 (HOP-92)	GI50 (Hs-578T)	GI50 (IGROV-1)	GI50 (LOX IMVI)	GI50 (MDA-MB-231)	GI50 (MDA-N)	GI50 (Malme-3M)	GI50 (NCI-H522)	GI50 (OVCAR-5)	GI50 (SK-MEL-2)	GI50 (SNB-19)	GI50 (T47D)	GI50 (U-251)	GI50 (CCRF-CEM)
O=C(O)c1cccc(OCCO)c1	> 100 µM (inactive)	> 100 µM (inactive)	> 100 µM (inactive)	> 100 µM	> 100 µM (inactive)	> 100 µM (inactive)	> 100 µM (inactive)	> 100 µM (inactive)	> 100 µM (inactive)	> 100 µM (inactive)	> 100 µM (inactive)	> 100 µM (inactive)	> 100 µM (inactive)	> 100 µM (inactive)	> 100 µM (inactive)	> 100 µM (inactive)	> 100 µM (inactive)	> 100 µM (inactive)	> 100 µM (inactive)	
c1ccc(Nc2nn3c(CCCCCCCCc4nnc5sc(Nc6ccccc6)nn45)nnc3s2)cc1	35.8 µM (inactive)	31.5 µM (inactive)	19.5 µM (inactive)	36.5 µM		38.5 µM (inactive)	22.9 µM (inactive)	31.2 µM (inactive)		22.1 µM (inactive)	28.7 µM (inactive)	18.4 µM (inactive)	37.1 µM (inactive)	20.2 µM (inactive)	36.9 µM (inactive)	29.4 µM (inactive)	26 µM (inactive)	13.2 µM (inactive)	35.2 µM (inactive)	20.4 µM (inactive)
Cc1cc(C)c(P2C(=C(O[Si](C(C)C)(C(C)C)C(C)C)C(C)(C)C)C2(c2ccccc2)c2ccccc2)c(C)c1 (stereo not drawn)	> 100 µM (inactive)	> 100 µM (inactive)	> 100 µM (inactive)	> 100 µM	> 100 µM (inactive)	> 100 µM (inactive)	> 100 µM (inactive)	> 100 µM (inactive)	> 100 µM (inactive)	> 100 µM (inactive)	> 100 µM (inactive)	> 100 µM (inactive)		62.1 µM (inactive)	> 100 µM (inactive)	> 100 µM (inactive)	> 100 µM (inactive)	> 100 µM (inactive)	> 100 µM (inactive)	> 100 µM (inactive)
Nc1nc(=O)[nH]cc1F [FLUCYTOSINE]	> 100 µM (inactive)	> 100 µM (inactive)	> 100 µM (inactive)	> 100 µM	> 100 µM (inactive)	> 100 µM (inactive)	> 100 µM (inactive)	> 100 µM (inactive)	> 100 µM (inactive)	> 100 µM (inactive)		> 100 µM (inactive)	> 100 µM (inactive)	> 100 µM (inactive)	> 100 µM (inactive)	> 100 µM (inactive)	> 100 µM (inactive)	> 100 µM (inactive)	32.7 µM (inactive)	
COc1ccccc1/C=C/c1c(N)ncnc1Nc1cccc(Cl)c1	6.56 µM (inactive)	19.7 µM (inactive)		15.9 µM	0.282 µM (active)	19.4 µM (inactive)	0.243 µM (active)	16.9 µM (inactive)	1.69 µM (inactive)		17.7 µM (inactive)	25 µM (inactive)	30.5 µM (inactive)	10.8 µM (inactive)	31.8 µM (inactive)	18.6 µM (inactive)	20.6 µM (inactive)	40.4 µM (inactive)	15.7 µM (inactive)	0.16 µM (active)
COc1cccc2c1[C@H]1CO[C@H]3C4C[C@H](C(=O)O)C([C@@H](C2)N13)N4C (stereo partly drawn)	3.85 µM (inactive)	0.116 µM (active)	1.6 µM (inactive)	1.67 µM	1.62 µM (inactive)		1.66 µM (inactive)	0.0769 µM (active)	4.51 µM (inactive)	1.36 µM (inactive)	0.205 µM (active)	0.17 µM (active)	2.61 µM (inactive)	0.294 µM (active)	2.37 µM (inactive)	1.08 µM (active)	2.91 µM (inactive)	0.242 µM (active)	1.41 µM (inactive)	
CC(=O)O[C@@H]1CC2[C@@H](CCC3Cc4nc5c(nc4C[C@@]32C)CC2CC[C@@H]3C(CC[C@@]4(C)C3CC[C@@H]4C(C)CCCC(C)C)[C@@]2(C)C5)C2C[C@@H]3OC4(CCC(C)CO4)C(C)[C@@H]3[C@]21C (stereo partly drawn)	55.7 µM (inactive)	> 100 µM (inactive)	> 100 µM (inactive)	> 100 µM	> 100 µM (inactive)	22.8 µM (inactive)	25.6 µM (inactive)	21.1 µM (inactive)	> 100 µM (inactive)		> 100 µM (inactive)	> 100 µM (inactive)	> 100 µM (inactive)	> 100 µM (inactive)	> 100 µM (inactive)		65.2 µM (inactive)	> 100 µM (inactive)	84.1 µM (inactive)	> 100 µM (inactive)
